# Results published in PMC12457637, “An aptamer-drug conjugate for promising cancer therapy with comprehensive evaluation from rodents to non-human primates” (Signal Transduction and Targeted Therapy, 2025).
# pIC50: −log10 of the molar value. Starred links: 1 amine or outer side, 2 acyl side, 3 side chain; linkers in the order of their positions; H or OH if unused. Non-standard residues stand in square brackets, D forms with d. Residues, ends and D or L forms follow the SMILES beside them. *: point of attachment. Dolaproine = CO[C@@H]([C@@H]1CCCN1)[C@@H](C)C(=O)O; Hexanoyl(6-maleimido) = O=C1C=CC(=O)N1CCCCCC(=O)*; Dil = CC[C@H](C)[C@H](NC)[C@@H](CC(=O)O)OC; PABC = O=C(OCc1ccc(N[*:1])cc1)[*:2]; X1 = C[C@@H](N*)[C@@H](O)c1ccccc1; Cit = NC(=O)NCCC[C@H](N)C(=O)O; NMeV = CN[C@H](C(=O)O)C(C)C
# Legend:
# Format in all cases: cell-based
# MIA PaCa-2 cells = assay: 72-h cytotoxicity (MTS), MIA PaCa-2; details: MIA PaCa-2, 72-h incubation
# Protocol: (§1) Cells were seeded in wells of a 96-well plate (6000 cells/well) and incubated overnight to allow for cell adherence. On the second day, 100 μL complete medium containing VcMMAE and Sgc8c-M (400, 200, 100, 50, 25, 12.5, and 6.25 nM), as well as MMAE (5, 2.5, 1.25, 0.625, 0.3125, 0.15625, and 0.078125 nM), were added to wells of a 96-well plate for an additional 72-h incubation at 37 °C. At the end of incubation, 100 μL of CellTiter 96® Aqueous One Solution Cell Proliferation Assay (MTS, Promega) solution (prepared by mixing 2 mL MTS with 9 mL of complete medium) were added to each well. The plates were then incubated for an additional 1–2 h to allow for the formation of formazan crystals. The absorbance of each well was measured at 490 nm using a Multi-Mode Microplate Reader (TECAN, SPARK) to assess cell viability. Cell viability was calculated as [OD490 (treatment) - OD490 (blank)]/[OD490 (nontreatment) - OD490 (blank)] × 100%.
# HT-29 cells = assay: 72-h cytotoxicity (MTS), HT-29; details: HT-29, 72 h
# Protocol: as §1
# OVCAR3 cells = assay: 72-h cytotoxicity (MTS), OVCAR3; details: OVCAR3, 72 h
# Protocol: as §1
structure (smiles),measurement,setting,value
"CC[C@H](C)[C@@H]([C@@H](CC(=O)N1CCC[C@H]1[C@H](OC)[C@@H](C)C(=O)N[C@H](C)[C@@H](O)c1ccccc1)OC)N(C)C(=O)[C@@H](NC(=O)[C@H](C(C)C)N(C)C(=O)OCc1ccc(NC(=O)[C@H](CCCNC(N)=O)NC(=O)[C@@H](NC(=O)CCCCCN2C(=O)C=CC2=O)C(C)C)cc1)C(C)C [VcMMAE, MC-VC-PAB-MMAE] ({Hexanoyl(6-maleimido)}-V[Cit][PABC][NMeV]V[Dil][Dolaproine]-X1)",pIC50,MIA PaCa-2 cells,6.73
same,pIC50,HT-29 cells,6.69
same,pIC50,OVCAR3 cells,6.98
